The values below are quoted from earlier work in paper PMC7221964 (Molecules, 2020).

Where two headings read alike, the source gives them in different places.

The test system of the series is epigenetic reader proteins. The text has this: ITC studies provided thermodynamic parameters (Gibbs free energy of binding ΔG°, enthalpy of binding ΔH°, entropy of binding ΔS°) for the association between five ...

Consider `C[N+](C)(C)CCCCCC(N)C(=O)O` (centres unmarked) [trimethylhomolysine], for which the “recognition by reader proteins” value (panel of the same five reader proteins) is recorded as “very well recognized”.
`C[N+](C)(C)CCSCC(N)C(=O)O` (centres unmarked) [KCme3, trimethylthialysine]: the “recognition by reader proteins” value (different epigenetic reader proteins) is “well recognized”.
